Assay results taken from US9150568B2, “Compositions and methods for modulating FXR” (NOVARTIS AG, priority 2010, dated 2015).

Target: T1, human Farnesoid X Receptor (FXR) ligand binding domain (GST-FXR LBD) (Homo sapiens, UniProt Q96RI1)
T1 construct: purchased Invitrogen
T1 sequence (Q96RI1 193-472 isoform Q96RI1-2): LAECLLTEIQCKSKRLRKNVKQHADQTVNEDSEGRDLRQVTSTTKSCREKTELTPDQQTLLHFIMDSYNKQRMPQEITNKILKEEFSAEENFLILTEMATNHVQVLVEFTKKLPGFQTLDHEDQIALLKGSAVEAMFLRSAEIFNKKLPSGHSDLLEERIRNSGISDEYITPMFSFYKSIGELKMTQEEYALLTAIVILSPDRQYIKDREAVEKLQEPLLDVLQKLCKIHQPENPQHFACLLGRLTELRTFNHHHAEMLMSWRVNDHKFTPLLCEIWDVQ
Assay: Human GST-FXR LBD co-activator interaction assay (HTRF)
Assay type: biochemical
Settings: GST-FXR LBD / biotin-SRC-1 peptide FRET; response relative to GW4064; read-out: FXR Co-activator interaction assay (EC50)
In short: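 FRET (HTRF) read-out of ligand-induced binding between GST-FXR LBD and an SRC-1 peptide, detected with anti-GST cryptate and streptavidin-XL665 in buffer with 50 mM KF. Response % was normalized to DMSO and to the maximal GW4064 response. EC50 came from a four-parameter fit.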

| Compound | EC50 [nM] |
| --- | --- |
| COc1cc(C(=O)O)cc2sc(N3C4CC[C@H]3CC(OCc3c(-c5c(C)cccc5C)noc3C3CC3)C4)nc12 (stereo partly drawn) [Example 30-14] | 1.2 |
| COC(=O)c1cc(F)c2nc(N3C4CC[C@H]3CC(OCc3c(-c5ccccc5C(F)(F)F)noc3C3CC3)C4)sc2c1 (stereo partly drawn) [Example 1-2A] | 28 |
| O=C(O)c1ccc(N2C3CC[C@H]2CC(OCc2c(-c4cccnc4C(F)(F)F)noc2C2CC2)C3)nc1 (stereo partly drawn) [Example 30-73] | 74 |
| COC(=O)c1cnc(N2C3CC[C@H]2C[C@H](OCc2c(-c4ccccc4OC(F)(F)F)noc2C2CC2)C3)cn1 [Example 18-5A] | 20 |
| O=C(O)c1cc(F)c2nc(N3[C@@H]4CC[C@H]3C[C@@H](OCc3c(-c5ccccc5C5CC5)noc3C3CC3)C4)sc2c1 [Example 30-23] | 0.4 |
| O=C(O)c1ccc(N2C3CC[C@H]2CC(OCc2c(-c4c(Cl)cccc4Cl)noc2C2CC2)C3)nc1 (stereo partly drawn) [Example 30-72] | 1.4 |
| COc1cc(C(=O)O)cc2sc(N3C4CC[C@H]3C[C@H](OCc3c(-c5ccccc5OC(F)F)noc3C3CC3)C4)nc12 [Example 6-4] | 0.18 |
| O=C(O)CNC(=O)c1cc(F)c2nc(N3C4CC[C@H]3C[C@H](OCc3c(-c5ccccc5OC(F)(F)F)noc3C3CC3)C4)sc2c1 [Example 15-2] | 0.5 |
| O=C(O)c1ccc2nc(N3C4CC[C@H]3C[C@H](OCc3c(C5CCCCC5C(F)(F)F)noc3C3CC3)C4)sc2c1 (stereo in doubt) [Example 7B, 2-(3-((5-cyclopropyl-3-((trans)-2-(trifluoromethyl)cyclohexyl)isoxazol-4-yl)methoxy)-8-azabicyclo[3.2.1]octan-8-yl)benzo[d]thiazole-6-carboxylic acid] | 16 |
| COC(=O)c1ccc(N2C3CC[C@H]2CC(OCc2c(-c4ccccc4OC(F)F)noc2C2CC2)C3)c(F)c1 (stereo partly drawn) [Example 25-6A] | 9 |
| O=C(O)c1cnc(N2C3CC[C@H]2C[C@H](OCc2c(-c4ccccc4OC(F)(F)F)noc2C2CC2)C3)cn1 [Example 18-5B] | 3 |
| O=C(O)c1ccc(N2[C@@H]3CC[C@H]2C[C@@H](OCc2c(-c4c(F)cccc4F)noc2C2CC2)C3)nc1 [Example 22-13B] | 9 |
| COC(=O)c1cnc(N2C3CC[C@H]2C[C@H](OCc2c(-c4ccccc4OC(F)(F)F)noc2C2CC2)C3)c(C)c1 [Example 19-4A] | 70 |
| COC(=O)c1cnc(N2C3CC[C@H]2CC(OCc2c(-c4ccccc4C(F)(F)F)noc2C2CC2)C3)nc1 (stereo partly drawn) [Example 21-2A] | 120 |
| O=C(O)Cc1ccc(N2C3CC[C@H]2C[C@H](OCc2c(-c4ccccc4OC(F)(F)F)noc2C2CC2)C3)nc1 [Example 19-1B] | 40 |
| COC(=O)c1ccc(N2C3CC[C@H]2C[C@H](OCc2c(-c4ccccc4C(F)(F)F)noc2C2CC2)C3)nc1 [Example 18-6A] | 50 |
| COC(=O)c1cc(N2C3CC[C@H]2CC(OCc2c(-c4c(F)cccc4F)noc2C2CC2)C3)nc(Cl)n1 (stereo partly drawn) [Example 22-19] | 57 |
| COC(=O)c1cnc(N2C3CC[C@H]2C[C@H](OCc2c(-c4ccccc4OC(F)(F)F)noc2C2CC2)C3)nc1C(F)(F)F [Example 19-2A] | 80 |
| O=C(O)c1noc2cc(N3C4CC[C@H]3CC(OCc3c(-c5ccccc5OC(F)(F)F)noc3C3CC3)C4)ccc12 (stereo partly drawn) [Example 28-18] | 8.2 |
| O=C(O)c1ccc(N2[C@@H]3CC[C@H]2C[C@@H](OCc2c(-c4ccccc4F)noc2C2CC2)C3)nc1 [Example 30-69] | 21 |
| Cc1nc(N2C3CC[C@H]2CC(OCc2c(-c4ccccc4C(F)(F)F)noc2C2CC2)C3)ccc1C(=O)O (stereo partly drawn) [Example 30-45] | 18 |
| COC(=O)c1cc(F)c2nc(N3C4CC[C@H]3C[C@H](OCc3c(-c5ccccc5OC(F)F)noc3C3CC3)C4)sc2c1 [Example 6-3A] | 12 |
| Cc1cc(C(=O)O)cc2sc(N3C4CC[C@H]3CC(OCc3c(-c5ccccc5C(F)(F)F)noc3C3CC3)C4)nc12 (stereo partly drawn) [Example 30-31] | 7 |
| CC1(C)CCC(c2noc(C3CC3)c2CO[C@@H]2CC3CC[C@@H](C2)N3c2nc3c(F)cc(C(=O)O)cc3s2)CC1 [Example 8-4] | 8.9 |
